Test results taken from US9283199B2, “Halogenated aliphatic carboxylic acids, oligomers and/or polymers thereof and their use in devitalizing external and internal neoplasms” (Cimas Limited, priority 2009, dated 2016).
Where two headings read alike, the source gives them in different places.

Columns and labels:
[1] = Storage stability of DPA; type: physicochemical; conditions: stored in sealed brown glass containers between −4° C. and +50° C.
[2] = tested on: benign, viral, pre-malignant, non-metastasizing malignant and mucosal tumor lesions; test: Clinical study of topical DPA / DPA oligomer treatment of skin pathologies, long term follow-up (Example 1); type: in vivo, human; conditions: all tumor types, 2-8 years follow-up
Protocol: Patients suffering from benign tumors, viral warts or mucosal membraneus tumors were administered with the tetramer form of DPA. In some cases, DPA, as a monomer, was used. Patients suffering from premalignant or malignant tumors were administered with longer oligomers of DPA.
In most cases, the DPA monomer or oligomer was administered only once and without anesthesia or other special conditions. Only in cases of patients suffering from Recklinghausen disease (a multiple form of peripheral Neurofibromatosis), when the number of skin tumor lesions was more than 100, multiple treatment sessions were performed. […]
The safety of DPA oligomer treatment was assessed by evaluating the treated skin lesion appearance, local skin reaction, vital sign measurements, adverse events and concomitant medications taken by the patient. […]
At the 3-week, 6-week and 12-week post-treatment visit(s), a clinical assessment was performed to determine whether treated lesions were visible at the target site. Pigmented lesions, suspected of being malignant, were further evaluated microscopically by the excision of a biopsy sample with a 3 mm margin from the lesion, using the radioelectro technique, and histopathologically examining the sample for evidence of residual or recurrence of tumor. […]

[3] = in vivo; cited from earlier work
[4] = in vivo; cited from earlier work; remark: listed apart in the source
[5] = cited from earlier work

## CC(Cl)(Cl)C(=O)O [DPA, 2,2-Dichloropropanoic acid]
[1]
  chemoanalytical and biological (efficacy) stability: at least 5 years
[2]; Total
  Very good result (++++) %: 82.1%
[2]
  satisfactory level of clinical results observed, % of the tumors: 99.1%
[3]
  accumulation in animal tissues: does not build up in animal tissues
[4]
  half-life in human blood: 36 to 72 h
[5]; DPA and all of its known breakdown products
  solubility in water: dissolve easily in water
[5]; at 25° C.
  solubility in water: 90 g/100 ml
[5]
  solubility in organic solvents and lipids: insoluble
